Assay results from patent US20100022562A1, “Use of Plant Growth Regulators to Reduce Abscisic Acid Related Plant Leaf Yellowing” (priority 2008, published 2010).

What was measured:
Type in all cases: in vivo
[1] = test system: Pansy plants; assay: Pansy shelf life under drought (daily wilting rating, sales index)
In short: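 Greenhouse pansies were treated with 20 mL solution each, 3 mL foliar plus 17 mL root drench, then watering was withheld. Wilting was rated daily on a 1–4 scale, and shelf life was the day before the rating reached 2.5. Yellow leaves were counted 3 days after treatment.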

[2] = test system: Pansy plants; assay: Pansy yellow leaf number (leaf yellowing)
Protocol: All studies were conducted in the greenhouse at the research farm of Valent BioSciences Corporation (Long Grove, Ill.). Pansy plants were obtained either from local retailers as mature plants, or plugs from wholesale nurseries. Plugs of Pansy plants were transplanted into an 18-cell flat filled with Promix BX (available from Premier Horticulture Inc. Quakertown, Pa.) and grown for about 30 days prior to treatment. During growing periods, plants received daily irrigation and weekly fertilizer (1 g/L all purpose fertilizer 20-20-20, The Scotts Company, Marysville, Ohio).
(§1) Uniform plants were selected for the study. Prior to chemical treatment, plants were saturated with water and then drained for about two hours. A total of 20 mL chemical solution, which is equivalent to about 10% of the cell volume, was applied to each plant with 3 mL solution foliar applied to canopy and 17 mL solution drench applied to root zone. Unless specified, watering of plants was stopped after chemical treatment.
After chemical treatment, plants were arranged in a randomized complete block experimental design. The plants were rated daily for the extent of wilting on a scale from 1 (no wilting) to 4 (complete wilting) to generated a sales index rating. A rating of 2.5 was the point at which a plant was determined to be unmarketable and the previous day was recorded as the shelf life of that plant in days. […] Leaf transpiration rate was measured after treatment using a LI-1600 Steady State Porometer (LI-Cor, Lincoln, Nebr.). The transpiration rate of each treatment was calculated as the percentage of that of control at each day to reduce day-to-day variation caused by changes of environmental condition such as light intensity, humidity, and temperature.

[3] = test system: Pansy plants; assay: Pansy leaf transpiration rate (LI-1600 Steady State Porometer); details: Matrix Premium Rose
Protocol: as §1
After chemical treatment, plants were arranged in a randomized complete block experimental design. The plants were rated daily for the extent of wilting on a scale from 1 (no wilting) to 4 (complete wilting) to generated a sales index rating. A rating of 2.5 was the point at which a plant was determined to be unmarketable and the previous day was recorded as the shelf life of that plant in days. Yellow leaf number was counted at 3 days after chemical treatment. Leaf transpiration rate was measured after treatment using a LI-1600 Steady State Porometer (LI-Cor, Lincoln, Nebr.). The transpiration rate of each treatment was calculated as the percentage of that of control at each day to reduce day-to-day variation caused by changes of environmental condition such as light intensity, humidity, and temperature.

Yellow leaf number ([2]; 0.2 mg BA, Matrix Yellow, 3 d after treatment, Table 5): 1.8
Yellow leaf number ([2]; 0.2 mg BA, no water, Whispers White, 3 d after treatment, Table 15): 7.8
Yellow leaf number ([2]; 2 mg BA at 0 d, Matrix Premium Rose, 3 d after treatment, Table 11): 0.8
Yellow leaf number ([2]; 2 mg BA at +1 d, Matrix Premium Rose, 3 d after treatment, Table 11): 0.8
Yellow leaf number ([2]; 2 mg BA at −1 d, Matrix Premium Rose, 3 d after treatment, Table 11): 0.7
Yellow leaf number ([2]; 2 mg BA, Delta Premium Pure White, 3 days after treatment, Table 23): 1.3
Yellow leaf number ([2]; 2 mg BA, Delta Premium Pure White, 7 days after treatment, Table 23): 6.2
Yellow leaf number ([2]; 2 mg BA, Matrix Yellow, 3 d after treatment, Table 5): 1.5
Yellow leaf number ([2]; 2 mg BA, no water, Matrix Premium Rose, 3 d after treatment, Table 13): 0.8
Yellow leaf number ([2]; 2 mg BA, no water, Whispers White, 3 d after treatment, Table 15): 6.3
Yellow leaf number ([2]; 2 mg, Clear Sky Yellow, drought, 3 d after treatment, Table 8): 0.0
Yellow leaf number ([2]; 2 mg, Crown Azure Blue, drought, 3 d after treatment, Table 9): 0.3
Yellow leaf number ([2]; 2 mg, Matrix Yellow, drought, 3 d after treatment, Table 7): 7.8
Yellow leaf number ([2]; 2 mg, Matrix Yellow, drought, 3 d after treatment, Table 10): 7.2
SMILES: c1ccc(CNc2ncnc3nc[nH]c23)cc1 [BA, 6-benzylaminopurine]
Shelf life ([1]; 0.2 mg BA, Matrix Yellow, Table 5): 3.8 days
Shelf life ([1]; 0.2 mg BA, no water, Whispers White, Table 15): 2.5 days
Shelf life ([1]; 2 mg BA at 0 d, Matrix Premium Rose, Table 11): 3.7 days
Shelf life ([1]; 2 mg BA at +1 d, Matrix Premium Rose, Table 11): 4.0 days
Shelf life ([1]; 2 mg BA at −1 d (1 day prior to ABA treatment day), Matrix Premium Rose, Table 11): 3.8 days
Shelf life ([1]; 2 mg BA, Delta Premium Pure White, Table 23): 4.0 days
Shelf life ([1]; 2 mg BA, Matrix Yellow, Table 5): 3.8 days
Shelf life ([1]; 2 mg BA, no water, Matrix Premium Rose, Table 13): 4.0 days
Shelf life ([1]; 2 mg BA, no water, Whispers White, Table 15): 2.7 days
Shelf life ([1]; 2 mg, Clear Sky Yellow, drought, Table 8): 3.8 days
Shelf life ([1]; 2 mg, Crown Azure Blue, drought, Table 9): 3.3 days
Shelf life ([1]; 2 mg, Matrix Yellow, drought, Table 7): 3.5 days
Shelf life ([1]; 2 mg, Matrix Yellow, drought, Table 10): 2.3 days
Transpiration rate (% of control) ([3]; 0.2 mg BA, no water, day 1 after treatment, Table 16): 101 % of control
Transpiration rate (% of control) ([3]; 0.2 mg BA, no water, day 2 after treatment, Table 16): 29 % of control
Transpiration rate (% of control) ([3]; 0.2 mg BA, no water, day 3 after treatment, Table 16): 7 % of control
Transpiration rate (% of control) ([3]; 0.2 mg BA, watered, day 1 after treatment, Table 16): 102 % of control
Transpiration rate (% of control) ([3]; 0.2 mg BA, watered, day 2 after treatment, Table 16): 98 % of control
Transpiration rate (% of control) ([3]; 0.2 mg BA, watered, day 3 after treatment, Table 16): 100 % of control
Transpiration rate (% of control) ([3]; 0.2 mg BA, watered, day 4 after treatment, Table 16): 101 % of control
Transpiration rate (% of control) ([3]; 0.2 mg BA, watered, day 5 after treatment, Table 16): 100 % of control
Transpiration rate (% of control) ([3]; 0.2 mg BA, watered, day 7 after treatment, Table 16): 99 % of control
Transpiration rate (% of control) ([3]; 0.2 mg BA, watered, day 10 after treatment, Table 16): 100 % of control
Transpiration rate (% of control) ([3]; 2 mg BA at 0 d, day 1 after ABA treatment, Table 12): 105 % of control
Transpiration rate (% of control) ([3]; 2 mg BA at 0 d, day 2 after ABA treatment, Table 12): 97 % of control
Transpiration rate (% of control) ([3]; 2 mg BA at 0 d, day 3 after ABA treatment, Table 12): 98 % of control
Transpiration rate (% of control) ([3]; 2 mg BA at +1 d, day 1 after ABA treatment, Table 12): 96 % of control
Transpiration rate (% of control) ([3]; 2 mg BA at +1 d, day 2 after ABA treatment, Table 12): 101 % of control
Transpiration rate (% of control) ([3]; 2 mg BA at +1 d, day 3 after ABA treatment, Table 12): 107 % of control
Transpiration rate (% of control) ([3]; 2 mg BA at −1 d, day 1 after ABA treatment, Table 12): 115 % of control
Transpiration rate (% of control) ([3]; 2 mg BA at −1 d, day 2 after ABA treatment, Table 12): 104 % of control
Transpiration rate (% of control) ([3]; 2 mg BA at −1 d, day 3 after ABA treatment, Table 12): 109 % of control
Transpiration rate (% of control) ([3]; 2 mg BA, no water, day 1 after treatment, Table 14): 108 % of control
Transpiration rate (% of control) ([3]; 2 mg BA, no water, day 1 after treatment, Table 16): 101 % of control
Transpiration rate (% of control) ([3]; 2 mg BA, no water, day 2 after treatment, Table 14): 71 % of control
Transpiration rate (% of control) ([3]; 2 mg BA, no water, day 2 after treatment, Table 16): 34 % of control
Transpiration rate (% of control) ([3]; 2 mg BA, no water, day 3 after treatment, Table 14): 54 % of control
Transpiration rate (% of control) ([3]; 2 mg BA, no water, day 3 after treatment, Table 16): 14 % of control
Transpiration rate (% of control) ([3]; 2 mg BA, no water, day 4 after treatment, Table 14): 35 % of control
Transpiration rate (% of control) ([3]; 2 mg BA, watered, day 1 after treatment, Table 14): 109 % of control
Transpiration rate (% of control) ([3]; 2 mg BA, watered, day 1 after treatment, Table 16): 99 % of control
Transpiration rate (% of control) ([3]; 2 mg BA, watered, day 2 after treatment, Table 14): 102 % of control
Transpiration rate (% of control) ([3]; 2 mg BA, watered, day 2 after treatment, Table 16): 97 % of control
Transpiration rate (% of control) ([3]; 2 mg BA, watered, day 3 after treatment, Table 14): 101 % of control
Transpiration rate (% of control) ([3]; 2 mg BA, watered, day 3 after treatment, Table 16): 98 % of control
Transpiration rate (% of control) ([3]; 2 mg BA, watered, day 4 after treatment, Table 14): 101 % of control
Transpiration rate (% of control) ([3]; 2 mg BA, watered, day 4 after treatment, Table 16): 97 % of control
Transpiration rate (% of control) ([3]; 2 mg BA, watered, day 5 after treatment, Table 14): 99 % of control
Transpiration rate (% of control) ([3]; 2 mg BA, watered, day 5 after treatment, Table 16): 101 % of control
Transpiration rate (% of control) ([3]; 2 mg BA, watered, day 7 after treatment, Table 14): 98 % of control
Transpiration rate (% of control) ([3]; 2 mg BA, watered, day 7 after treatment, Table 16): 97 % of control
Transpiration rate (% of control) ([3]; 2 mg BA, watered, day 10 after treatment, Table 14): 101 % of control
Transpiration rate (% of control) ([3]; 2 mg BA, watered, day 10 after treatment, Table 16): 102 % of control
Transpiration rate (% of control) ([3]; 2 mg BA, watered, day 15 after treatment, Table 14): 98 % of control
